Results reported in patent US20130084257A1, “TRANSDERMAL ABSORPTION PROMOTER, AND EXTERNAL SKIN FORMULATION THEREOF” (TAKASAGO INTERNATIONAL CORPORATION, priority 2010, published 2013).
Read-outs that look alike come from different tables or passages of the source.

What was measured:
[1] = hairless, mouse, 2 mass %, pH 7.4
Method: (§1) A skin specimen extirpated from a hairless mouse was placed in a vertical diffusion cell, with the dermal horny layer side being in the donor side and the dermal basement membrane side being in the receiver side. 16 mL of a phosphate-buffered physiological saline solution (PBS solution) (pH 7.4) was added to the receiver side. The cell was heated in a water bath at 37° C. 30 minutes after starting heating, 1.0 g of a hydrogel, having been heated to 37° C., was applied to the donor side using a needleless syringe. The receiver solution was collected in 1 mL portions at specific time intervals. To the receiver side, the PBS solution was added in 1 mL portions to make up for the collected portions.
(§2) The receiver solution thus collected was subjected to high performance liquid chromatography (HPLC) and the amount of permeated paroxetine was calculated.

[2] = Skin permeability test: effect of promoting transdermal absorption of paroxetine (vertical diffusion cell); type: in vitro ADME; conditions: hydrogel with 1 mass % paroxetine and 2 mass % test sample; hairless mouse skin; receiver PBS pH 7.4; 37° C.; n = 5
Source text: As a control, purified water was used as a substitute for the test samples.
Device: Elite LaChrom System (manufactured by Hitachi Ltd.)
Column: YMS-Pack ODS-A 4.6 mm×150 mm (manufactured by YMC Co., Ltd.)
Eluent: phosphate buffer (pH 3.5)/acetonitrile=35/65 (V/V)
Measurement wavelength: 235 nm

[3] = Skin permeability test: effect of promoting transdermal absorption of antipyrine (vertical diffusion cell); conditions: hydrogel with 2 mass % antipyrine and 2 mass % test sample; hairless mouse skin; receiver PBS pH 7.4; 37° C.; n = 5
Method: as §1, §2

Row | Flux of antipyrine (transdermal absorption amount per unit time and unit area) [1] | Lagtime of antipyrine (transdermal absorption speed) [1] | Structure (SMILES) | Flux of paroxetine (transdermal absorption amount per unit time and unit area) [2] | Lagtime of paroxetine (transdermal absorption speed) [2] | Flux of antipyrine (transdermal absorption amount per unit time and unit area) [3] | Lagtime of antipyrine (transdermal absorption speed) [3]
1 | 150.71 ± 5.46 μg/cm^2/h | 3.20 ± 0.24 h | CC1CCC(C(C)C)C(OCC(C)(O)CO)C1 (centres unmarked) [CA1, 2-methyl-3-(menthoxy)propane-1,2-diol] | – | – | – | –
2 | 224.59 ± 19.56 μg/cm^2/h | 1.36 ± 0.28 h | CC1CCC(C(C)C)C(OCCO)C1 (centres unmarked) [CA5, 2-(menthoxy)ethanol] | – | – | – | –
3 | – | – | CC1CCC(C(C)C)C(O)C1 (centres unmarked) [Sample 1-Menthol, 1-menthol] | 185 ± 31.1 μg/cm^2/h | 3.84 ± 1.60 h | 300.52 ± 34.42 μg/cm^2/h | 0.53 ± 0.02 h
